Laboratory results: US20180221463A1, “Modified NK Cells and Uses Thereof” (priority 2017, published 2018)

What was measured:
[1] = target: T1, SMAD3 (Homo sapiens, UniProt P84022); experiment: Blockade of Smad3 in NK-92 cells under TGF-β1: E4BP4 and IFN-γ levels; format: cell-based; settings: high TGF-β1 (5 ng/ml), SIS3 5 μM
T1 construct: NK-92 cells were pretreated with SIS3 at various concentrations for 2 hours; endogenous in cells; host or cells: NK-92 (human NK cell line)
Method: To reveal the regulatory role of SMAD3 and E4BP4 in the production of IFN-γ in NK-92 cells, a specific inhibitor of SMAD3 known as SIS3 (Sigma) was used in this study. Briefly, NK-92 cells were pretreated with SIS3 at various concentrations for 2 hours. The cells were then treated with TGF-β1 at the final concentration of 5 ng/ml for 45 min and harvested for detection of the phosphorylation level of SMAD3 with western blot. The dosage of SIS3 that induced the maximum effect of phosphorylation inhibition of SMAD3 was determined as the optimal dosage of SIS3 used in further experiment. NK-92 cells were then pretreated with or without SIS3 at the determined concentration for 2 hours followed by stimulation with TGF-β1 at the final concentration of 5 ng/ml for 12 hours. The cells were harvested to detect the level of E4BP4 and IFN-γ.

[2] = tested on: SMAD3; experiment: SMAD3 knockdown in NK-92 cells, real-time PCR and western blot; format: cell-based, human
Method: NK-92 cells were transduced with rLV-hSMAD3 and selected with puromycin (InvivoGen). Briefly, NK-92 cells were seeded in a 24-well plate at a density of 1×10^6/ml and mixed with ploybrene (Santa Cruz) at final concentration of 5 ug/ml and rLV-hSmad3 at MOI (multiplicity of infection) equal to 50 overnight at 37° C. The transduced cells were then expanded in complete medium and selected with puromycin at a final concentration of 2 ug/ml. The expression level of SMAD3 in the puromycin resistant clone was determined by real-time PCR with corresponding primers (Table 2) and Western blot analysis with rabbit anti human SMAD3 antibody (Abcam) respectively.
Total RNA from cells was isolated using the PureLink™ RNA Mini kit (Life Technologies) according to the manufacturer's instruction. The reverse transcription reaction was conducted with C1000 thermal cycler. The cDNA was then diluted with 40 ul RNase-free water and used as the template in real-time polymerase chain reaction.

T1 sequence (P84022 whole entry): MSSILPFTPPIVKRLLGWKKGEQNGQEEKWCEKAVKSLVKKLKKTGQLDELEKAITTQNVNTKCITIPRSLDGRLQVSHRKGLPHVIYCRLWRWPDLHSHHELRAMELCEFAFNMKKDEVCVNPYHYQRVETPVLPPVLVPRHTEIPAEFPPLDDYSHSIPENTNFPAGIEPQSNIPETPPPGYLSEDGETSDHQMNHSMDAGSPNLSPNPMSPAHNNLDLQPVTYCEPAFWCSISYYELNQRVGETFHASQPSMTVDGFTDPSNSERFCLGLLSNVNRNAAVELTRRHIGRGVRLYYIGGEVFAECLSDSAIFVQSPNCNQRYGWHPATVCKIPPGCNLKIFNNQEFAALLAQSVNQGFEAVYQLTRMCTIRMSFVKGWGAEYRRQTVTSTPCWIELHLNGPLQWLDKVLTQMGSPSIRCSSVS

Row | Compound | expressions of E4BP4 mRNA and protein [1] | production of IFN-γ [1] | mRNA expression of SMAD3 ([2]; real-time PCR) | decrease in SMAD3 protein ([2]; western blot)
1 | COc1cc2c(cc1OC)CN(C(=O)/C=C/c1c(-c3ccccc3)n(C)c3ncccc13)CC2 [SIS3] | markedly increase | markedly increase | – | –
2 | shRNA-hSmad3: shRNA specifically against human SMAD3 mRNA, sequence GGAGAAATGGTGCGAGAAG (Table 3), delivered by lentivirus (shRNA hairpin; lentiviral delivery) | – | – | largely down-regulated | more than 70%
